From ChEMBL document CHEMBL3621113, “Strategies for the Discovery of Target-Specific or Isoform-Selective Modulators” (J Med Chem, 2015)
Values belong to the molecule of their own block, whether it stands above or below them.

How the values were obtained:
[1] = target: Histone deacetylase 5 (Homo sapiens, UniProt Q9UQL6)
Description: Inhibition of HDAC5 in human HeLa nuclear extracts by fluorometric assay

[2] = target: T1, Amine oxidase [flavin-containing] A (Homo sapiens, UniProt P21397)
T1 sequence (P21397 whole entry): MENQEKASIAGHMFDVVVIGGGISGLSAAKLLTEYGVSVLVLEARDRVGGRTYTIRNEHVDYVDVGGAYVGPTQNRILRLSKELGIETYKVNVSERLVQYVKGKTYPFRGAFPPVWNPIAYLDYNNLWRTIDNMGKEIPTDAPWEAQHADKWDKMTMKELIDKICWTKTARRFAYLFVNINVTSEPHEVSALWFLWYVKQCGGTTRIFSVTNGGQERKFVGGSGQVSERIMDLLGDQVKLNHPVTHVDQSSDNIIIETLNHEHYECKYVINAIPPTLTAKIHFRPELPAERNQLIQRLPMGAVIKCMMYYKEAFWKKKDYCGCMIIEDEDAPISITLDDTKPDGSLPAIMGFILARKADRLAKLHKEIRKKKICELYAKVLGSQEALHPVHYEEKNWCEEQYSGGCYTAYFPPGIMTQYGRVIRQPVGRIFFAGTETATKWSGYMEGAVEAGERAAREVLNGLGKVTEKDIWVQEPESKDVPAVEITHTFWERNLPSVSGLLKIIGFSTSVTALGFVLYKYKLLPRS
Description: Inhibition of human MAO-A using (4S)-4,5-dihydro-2-(6-hydroxybenzothiazolyl)-4-thiazolecarboxylic acid as substrate after 60 mins by MAO-Glo assay

[3] = target: T2, Amine oxidase [flavin-containing] B (Homo sapiens, UniProt P27338)
T2 sequence (P27338 whole entry): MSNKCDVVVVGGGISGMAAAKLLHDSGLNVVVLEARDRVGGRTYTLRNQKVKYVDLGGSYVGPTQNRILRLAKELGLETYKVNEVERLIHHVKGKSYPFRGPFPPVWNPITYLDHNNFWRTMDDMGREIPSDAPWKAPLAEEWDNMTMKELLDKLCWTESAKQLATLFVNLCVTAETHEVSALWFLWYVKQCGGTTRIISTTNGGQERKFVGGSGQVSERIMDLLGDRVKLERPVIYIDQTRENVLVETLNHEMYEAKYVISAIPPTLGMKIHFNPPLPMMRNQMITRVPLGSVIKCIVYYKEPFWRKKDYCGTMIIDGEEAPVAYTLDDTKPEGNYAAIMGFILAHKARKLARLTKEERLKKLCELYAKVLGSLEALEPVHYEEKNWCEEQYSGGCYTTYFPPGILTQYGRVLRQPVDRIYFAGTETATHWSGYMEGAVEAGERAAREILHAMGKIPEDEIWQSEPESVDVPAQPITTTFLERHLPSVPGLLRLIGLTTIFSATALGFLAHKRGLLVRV
Description: Inhibition of human MAO-B using (4S)-4,5-dihydro-2-(6-hydroxybenzothiazolyl)-4-thiazolecarboxylic acid as substrate after 60 mins by MAO-Glo assay

[4] = target: Tyrosine-protein kinase JAK2 (Homo sapiens, UniProt O60674); experiment: Inhibition of JAK2 (unknown origin) after 20 mins by radiometric analysis in presence of [gamma33P]-ATP
Chain of Tyrosine-protein kinase JAK2 (O60674 whole entry): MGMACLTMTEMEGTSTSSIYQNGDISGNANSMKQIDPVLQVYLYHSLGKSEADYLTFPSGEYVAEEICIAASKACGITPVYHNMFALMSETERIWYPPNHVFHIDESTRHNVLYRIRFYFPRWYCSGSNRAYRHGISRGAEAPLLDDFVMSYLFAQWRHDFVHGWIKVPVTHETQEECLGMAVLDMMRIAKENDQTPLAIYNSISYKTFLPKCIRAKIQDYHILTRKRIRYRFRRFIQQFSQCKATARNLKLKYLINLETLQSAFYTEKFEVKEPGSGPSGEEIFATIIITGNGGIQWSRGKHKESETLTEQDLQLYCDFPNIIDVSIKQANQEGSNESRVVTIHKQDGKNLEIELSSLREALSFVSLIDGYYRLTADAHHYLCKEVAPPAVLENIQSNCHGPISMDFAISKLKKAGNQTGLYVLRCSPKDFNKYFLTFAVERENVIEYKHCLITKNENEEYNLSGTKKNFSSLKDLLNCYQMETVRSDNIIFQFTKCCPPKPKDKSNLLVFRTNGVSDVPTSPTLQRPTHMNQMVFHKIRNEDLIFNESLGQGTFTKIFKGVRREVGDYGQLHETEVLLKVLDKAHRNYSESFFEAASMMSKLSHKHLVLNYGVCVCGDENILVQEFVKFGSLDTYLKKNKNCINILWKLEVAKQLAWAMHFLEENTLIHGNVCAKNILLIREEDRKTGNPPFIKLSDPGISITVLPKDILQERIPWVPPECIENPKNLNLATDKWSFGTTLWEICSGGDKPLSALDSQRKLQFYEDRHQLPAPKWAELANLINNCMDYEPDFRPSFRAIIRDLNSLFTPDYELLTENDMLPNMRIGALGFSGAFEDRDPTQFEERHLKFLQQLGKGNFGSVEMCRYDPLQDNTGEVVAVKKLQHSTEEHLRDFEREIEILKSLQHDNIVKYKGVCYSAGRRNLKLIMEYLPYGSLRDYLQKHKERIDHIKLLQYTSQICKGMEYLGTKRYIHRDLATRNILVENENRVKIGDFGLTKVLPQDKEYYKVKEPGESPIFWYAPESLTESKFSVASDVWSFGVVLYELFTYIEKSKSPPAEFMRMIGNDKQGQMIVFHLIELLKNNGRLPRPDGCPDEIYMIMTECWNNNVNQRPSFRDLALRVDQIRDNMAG

[5] = target: T3, Tyrosine-protein kinase JAK3 (Homo sapiens, UniProt P52333); experiment: Inhibition of JAK3 (unknown origin) after 20 mins by radiometric analysis in presence of [gamma33P]-ATP
T3 sequence (P52333 whole entry): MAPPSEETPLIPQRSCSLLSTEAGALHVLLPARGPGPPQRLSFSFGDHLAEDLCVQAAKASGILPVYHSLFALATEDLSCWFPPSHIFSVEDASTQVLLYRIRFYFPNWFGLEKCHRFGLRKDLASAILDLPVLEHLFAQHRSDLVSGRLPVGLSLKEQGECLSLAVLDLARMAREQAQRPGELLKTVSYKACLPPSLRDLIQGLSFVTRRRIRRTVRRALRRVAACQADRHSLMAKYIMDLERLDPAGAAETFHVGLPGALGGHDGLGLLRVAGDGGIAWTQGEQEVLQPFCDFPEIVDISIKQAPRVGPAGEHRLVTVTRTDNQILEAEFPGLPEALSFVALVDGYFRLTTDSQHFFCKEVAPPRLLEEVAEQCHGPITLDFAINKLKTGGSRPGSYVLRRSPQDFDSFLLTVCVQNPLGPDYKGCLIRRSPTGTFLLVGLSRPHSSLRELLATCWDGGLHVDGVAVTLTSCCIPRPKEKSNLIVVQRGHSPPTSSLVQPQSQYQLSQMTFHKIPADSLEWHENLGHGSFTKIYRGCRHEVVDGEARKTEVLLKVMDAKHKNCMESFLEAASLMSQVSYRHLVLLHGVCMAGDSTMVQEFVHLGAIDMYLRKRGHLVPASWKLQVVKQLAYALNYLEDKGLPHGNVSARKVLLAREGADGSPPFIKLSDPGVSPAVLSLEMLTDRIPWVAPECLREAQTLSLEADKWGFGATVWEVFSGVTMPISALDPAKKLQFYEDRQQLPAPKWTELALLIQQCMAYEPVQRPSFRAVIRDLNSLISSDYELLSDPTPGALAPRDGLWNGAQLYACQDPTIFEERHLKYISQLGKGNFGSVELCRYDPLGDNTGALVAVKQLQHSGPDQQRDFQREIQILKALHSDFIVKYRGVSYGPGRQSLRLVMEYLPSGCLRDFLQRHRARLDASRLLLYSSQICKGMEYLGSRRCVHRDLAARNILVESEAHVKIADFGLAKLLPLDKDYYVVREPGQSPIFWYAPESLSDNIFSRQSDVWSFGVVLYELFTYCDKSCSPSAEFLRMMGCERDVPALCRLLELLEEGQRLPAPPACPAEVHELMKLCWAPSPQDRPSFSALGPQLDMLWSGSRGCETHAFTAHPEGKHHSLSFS

[6] = target: Tyrosine-protein kinase JAK1 (Homo sapiens, UniProt P23458); experiment: Inhibition of JAK1 (unknown origin) after 20 mins by radiometric analysis in presence of [gamma33P]-ATP
[7] = target: Non-receptor tyrosine-protein kinase TYK2 (Homo sapiens, UniProt P29597); experiment: Inhibition of TYK2 (unknown origin) after 20 mins by radiometric analysis in presence of [gamma33P]-ATP
Chain of Non-receptor tyrosine-protein kinase TYK2 (P29597 whole entry, canonical isoform): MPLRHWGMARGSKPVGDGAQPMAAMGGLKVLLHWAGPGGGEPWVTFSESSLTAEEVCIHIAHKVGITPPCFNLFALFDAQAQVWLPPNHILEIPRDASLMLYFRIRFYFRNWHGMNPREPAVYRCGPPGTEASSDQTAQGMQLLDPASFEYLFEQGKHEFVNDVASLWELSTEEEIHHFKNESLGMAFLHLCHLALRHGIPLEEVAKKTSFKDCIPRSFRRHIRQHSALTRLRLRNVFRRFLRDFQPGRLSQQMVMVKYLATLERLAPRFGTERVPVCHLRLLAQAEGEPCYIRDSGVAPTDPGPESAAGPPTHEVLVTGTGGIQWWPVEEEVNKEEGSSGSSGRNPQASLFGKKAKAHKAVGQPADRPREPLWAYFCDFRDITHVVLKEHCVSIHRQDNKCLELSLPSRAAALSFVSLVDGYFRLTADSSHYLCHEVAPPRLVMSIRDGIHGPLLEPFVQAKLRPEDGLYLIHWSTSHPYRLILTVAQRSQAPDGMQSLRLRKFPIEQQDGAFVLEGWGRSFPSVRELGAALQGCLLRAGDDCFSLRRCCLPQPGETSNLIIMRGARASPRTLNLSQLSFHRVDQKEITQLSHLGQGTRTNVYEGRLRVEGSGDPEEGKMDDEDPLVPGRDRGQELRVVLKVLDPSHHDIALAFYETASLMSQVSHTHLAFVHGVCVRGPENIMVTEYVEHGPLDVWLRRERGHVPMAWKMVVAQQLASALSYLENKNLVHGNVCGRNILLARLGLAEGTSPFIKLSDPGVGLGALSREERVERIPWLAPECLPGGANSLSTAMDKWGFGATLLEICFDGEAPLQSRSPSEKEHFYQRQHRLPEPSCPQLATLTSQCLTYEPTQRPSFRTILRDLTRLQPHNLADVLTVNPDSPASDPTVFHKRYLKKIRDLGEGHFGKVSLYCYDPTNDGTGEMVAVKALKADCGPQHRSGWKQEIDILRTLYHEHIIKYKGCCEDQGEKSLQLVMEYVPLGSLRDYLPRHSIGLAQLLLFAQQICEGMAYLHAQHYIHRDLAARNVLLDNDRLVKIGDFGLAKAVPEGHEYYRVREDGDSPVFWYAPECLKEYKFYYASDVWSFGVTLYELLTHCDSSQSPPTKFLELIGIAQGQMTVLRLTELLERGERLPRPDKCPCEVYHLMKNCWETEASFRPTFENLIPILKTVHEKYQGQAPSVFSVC

[8] = target: Phosphatidylinositol 4,5-bisphosphate 3-kinase catalytic subunit gamma isoform (Homo sapiens, UniProt P48736); experiment: Inhibition of recombinant human PI3Kgamma by TR-FRET analysis
Chain of Phosphatidylinositol 4,5-bisphosphate 3-kinase catalytic subunit gamma isoform (P48736 whole entry, canonical isoform): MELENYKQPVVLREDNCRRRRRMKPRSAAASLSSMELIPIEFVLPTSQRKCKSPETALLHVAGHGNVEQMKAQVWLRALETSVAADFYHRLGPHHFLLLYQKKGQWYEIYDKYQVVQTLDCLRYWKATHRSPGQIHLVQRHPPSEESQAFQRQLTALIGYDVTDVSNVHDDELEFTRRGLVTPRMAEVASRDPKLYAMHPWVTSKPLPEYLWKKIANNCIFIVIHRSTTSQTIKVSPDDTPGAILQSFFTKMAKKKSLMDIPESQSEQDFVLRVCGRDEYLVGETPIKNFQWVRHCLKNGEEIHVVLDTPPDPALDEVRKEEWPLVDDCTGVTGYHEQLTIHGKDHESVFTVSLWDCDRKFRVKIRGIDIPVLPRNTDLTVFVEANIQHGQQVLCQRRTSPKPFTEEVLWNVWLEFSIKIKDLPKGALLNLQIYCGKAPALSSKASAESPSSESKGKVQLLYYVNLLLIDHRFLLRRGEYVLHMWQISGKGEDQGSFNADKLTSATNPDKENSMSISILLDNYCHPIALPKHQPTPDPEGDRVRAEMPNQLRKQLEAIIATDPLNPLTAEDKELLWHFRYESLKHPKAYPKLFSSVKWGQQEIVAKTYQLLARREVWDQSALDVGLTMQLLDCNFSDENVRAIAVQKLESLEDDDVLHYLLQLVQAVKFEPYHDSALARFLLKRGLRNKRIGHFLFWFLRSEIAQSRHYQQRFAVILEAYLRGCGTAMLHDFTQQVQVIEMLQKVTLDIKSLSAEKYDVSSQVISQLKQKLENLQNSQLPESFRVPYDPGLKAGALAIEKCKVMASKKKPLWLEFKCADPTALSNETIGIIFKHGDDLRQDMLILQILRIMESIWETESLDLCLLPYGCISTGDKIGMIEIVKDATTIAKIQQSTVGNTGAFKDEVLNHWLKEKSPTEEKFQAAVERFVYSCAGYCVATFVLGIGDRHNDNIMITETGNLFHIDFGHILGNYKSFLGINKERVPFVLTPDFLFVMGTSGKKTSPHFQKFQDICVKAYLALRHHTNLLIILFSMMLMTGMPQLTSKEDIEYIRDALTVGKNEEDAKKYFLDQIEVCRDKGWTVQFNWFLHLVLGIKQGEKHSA

[9] = target: Serine/threonine-protein kinase mTOR (Homo sapiens, UniProt P42345); experiment: Inhibition of recombinant human mTOR by TR-FRET analysis
[10] = target: Phosphatidylinositol 4,5-bisphosphate 3-kinase catalytic subunit beta isoform (Homo sapiens, UniProt P42338); experiment: Inhibition of recombinant human PI3Kbeta by TR-FRET analysis
[11] = target: T4, Phosphatidylinositol 4,5-bisphosphate 3-kinase catalytic subunit delta isoform (Homo sapiens, UniProt O00329); experiment: Inhibition of recombinant human PI3Kdelta by TR-FRET analysis
T4 sequence (O00329 whole entry): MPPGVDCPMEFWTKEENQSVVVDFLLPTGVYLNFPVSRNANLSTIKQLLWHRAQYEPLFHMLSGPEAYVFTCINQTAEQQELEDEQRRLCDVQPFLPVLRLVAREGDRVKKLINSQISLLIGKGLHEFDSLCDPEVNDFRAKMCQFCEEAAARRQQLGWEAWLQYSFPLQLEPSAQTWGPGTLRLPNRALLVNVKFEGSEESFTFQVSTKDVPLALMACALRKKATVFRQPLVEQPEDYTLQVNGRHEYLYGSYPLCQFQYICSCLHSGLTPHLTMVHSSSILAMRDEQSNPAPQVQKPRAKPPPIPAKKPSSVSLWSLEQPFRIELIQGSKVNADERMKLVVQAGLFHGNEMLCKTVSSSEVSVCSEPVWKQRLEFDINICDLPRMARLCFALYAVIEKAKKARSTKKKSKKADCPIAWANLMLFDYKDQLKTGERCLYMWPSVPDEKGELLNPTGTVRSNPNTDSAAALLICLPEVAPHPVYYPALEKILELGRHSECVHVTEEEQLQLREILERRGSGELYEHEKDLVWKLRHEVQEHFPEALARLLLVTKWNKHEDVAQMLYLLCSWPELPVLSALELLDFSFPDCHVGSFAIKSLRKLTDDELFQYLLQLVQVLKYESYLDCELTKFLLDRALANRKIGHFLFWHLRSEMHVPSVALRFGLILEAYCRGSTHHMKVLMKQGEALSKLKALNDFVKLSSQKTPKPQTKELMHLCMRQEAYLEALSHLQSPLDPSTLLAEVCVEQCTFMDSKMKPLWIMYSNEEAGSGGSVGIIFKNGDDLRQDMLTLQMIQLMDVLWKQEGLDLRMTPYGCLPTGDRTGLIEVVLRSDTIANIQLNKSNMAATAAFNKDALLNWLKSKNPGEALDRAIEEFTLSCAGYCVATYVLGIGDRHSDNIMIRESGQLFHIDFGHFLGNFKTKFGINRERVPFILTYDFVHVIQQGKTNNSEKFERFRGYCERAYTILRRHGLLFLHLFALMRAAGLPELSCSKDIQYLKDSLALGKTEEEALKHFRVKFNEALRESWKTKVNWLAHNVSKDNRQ

[12] = target: T1, Amine oxidase [flavin-containing] A; experiment: Inhibition of MAO-A (unknown origin)
[13] = target: T5, Histone deacetylase 8 (Homo sapiens, UniProt Q9BY41); experiment: Inhibition of HDAC8 in human HeLa nuclear extracts by fluorometric assay
T5 sequence (Q9BY41 whole entry): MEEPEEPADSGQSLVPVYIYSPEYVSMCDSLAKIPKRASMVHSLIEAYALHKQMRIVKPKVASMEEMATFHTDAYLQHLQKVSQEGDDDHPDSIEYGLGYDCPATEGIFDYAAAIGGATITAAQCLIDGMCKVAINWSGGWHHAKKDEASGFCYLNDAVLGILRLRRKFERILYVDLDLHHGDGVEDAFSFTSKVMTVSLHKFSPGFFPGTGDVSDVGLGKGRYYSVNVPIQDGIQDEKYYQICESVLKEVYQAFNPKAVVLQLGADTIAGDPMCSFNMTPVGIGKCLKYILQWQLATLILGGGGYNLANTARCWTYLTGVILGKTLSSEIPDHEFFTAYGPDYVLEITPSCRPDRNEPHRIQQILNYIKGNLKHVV

[14] = target: T6, Protein deacetylase HDAC6 (Homo sapiens, UniProt Q9UBN7); experiment: Inhibition of HDAC6 in human HeLa nuclear extracts by fluorometric assay
T6 sequence (Q9UBN7 whole entry): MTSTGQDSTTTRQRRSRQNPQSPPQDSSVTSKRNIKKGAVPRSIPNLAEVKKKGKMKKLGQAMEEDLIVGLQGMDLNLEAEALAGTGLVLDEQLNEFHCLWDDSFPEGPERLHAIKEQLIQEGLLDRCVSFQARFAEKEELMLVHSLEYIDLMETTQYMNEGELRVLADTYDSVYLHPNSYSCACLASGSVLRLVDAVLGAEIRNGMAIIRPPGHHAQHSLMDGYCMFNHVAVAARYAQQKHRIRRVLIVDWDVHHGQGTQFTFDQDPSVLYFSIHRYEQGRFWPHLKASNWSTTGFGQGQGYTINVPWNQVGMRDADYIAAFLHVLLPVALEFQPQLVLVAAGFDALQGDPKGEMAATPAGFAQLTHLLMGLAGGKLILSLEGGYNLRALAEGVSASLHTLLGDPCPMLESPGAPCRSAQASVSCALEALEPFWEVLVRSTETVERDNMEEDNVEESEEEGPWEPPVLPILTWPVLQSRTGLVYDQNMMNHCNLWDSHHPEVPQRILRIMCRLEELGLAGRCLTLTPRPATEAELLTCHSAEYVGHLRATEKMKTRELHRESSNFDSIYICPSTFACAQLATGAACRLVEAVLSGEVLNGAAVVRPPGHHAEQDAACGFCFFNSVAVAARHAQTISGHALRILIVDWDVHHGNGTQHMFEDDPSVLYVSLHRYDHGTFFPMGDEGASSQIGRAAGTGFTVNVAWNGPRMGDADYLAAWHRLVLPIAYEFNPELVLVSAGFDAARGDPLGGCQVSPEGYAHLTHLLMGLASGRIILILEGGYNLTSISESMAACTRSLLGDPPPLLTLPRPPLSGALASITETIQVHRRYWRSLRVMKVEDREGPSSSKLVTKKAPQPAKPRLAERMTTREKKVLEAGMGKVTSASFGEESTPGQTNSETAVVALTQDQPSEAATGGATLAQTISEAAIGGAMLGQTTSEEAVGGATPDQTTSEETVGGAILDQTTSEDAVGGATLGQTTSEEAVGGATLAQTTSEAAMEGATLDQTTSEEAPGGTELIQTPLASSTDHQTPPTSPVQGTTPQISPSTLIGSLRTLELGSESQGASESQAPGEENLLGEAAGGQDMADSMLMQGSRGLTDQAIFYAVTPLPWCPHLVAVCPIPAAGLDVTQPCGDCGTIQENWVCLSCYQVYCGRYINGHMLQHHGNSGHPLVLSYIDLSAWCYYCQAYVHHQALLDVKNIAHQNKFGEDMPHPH

[15] = target: Histone deacetylase 4 (Homo sapiens, UniProt P56524); experiment: Inhibition of HDAC4 in human HeLa nuclear extracts by fluorometric assay

Chain of Histone deacetylase 5 (Q9UQL6 whole entry): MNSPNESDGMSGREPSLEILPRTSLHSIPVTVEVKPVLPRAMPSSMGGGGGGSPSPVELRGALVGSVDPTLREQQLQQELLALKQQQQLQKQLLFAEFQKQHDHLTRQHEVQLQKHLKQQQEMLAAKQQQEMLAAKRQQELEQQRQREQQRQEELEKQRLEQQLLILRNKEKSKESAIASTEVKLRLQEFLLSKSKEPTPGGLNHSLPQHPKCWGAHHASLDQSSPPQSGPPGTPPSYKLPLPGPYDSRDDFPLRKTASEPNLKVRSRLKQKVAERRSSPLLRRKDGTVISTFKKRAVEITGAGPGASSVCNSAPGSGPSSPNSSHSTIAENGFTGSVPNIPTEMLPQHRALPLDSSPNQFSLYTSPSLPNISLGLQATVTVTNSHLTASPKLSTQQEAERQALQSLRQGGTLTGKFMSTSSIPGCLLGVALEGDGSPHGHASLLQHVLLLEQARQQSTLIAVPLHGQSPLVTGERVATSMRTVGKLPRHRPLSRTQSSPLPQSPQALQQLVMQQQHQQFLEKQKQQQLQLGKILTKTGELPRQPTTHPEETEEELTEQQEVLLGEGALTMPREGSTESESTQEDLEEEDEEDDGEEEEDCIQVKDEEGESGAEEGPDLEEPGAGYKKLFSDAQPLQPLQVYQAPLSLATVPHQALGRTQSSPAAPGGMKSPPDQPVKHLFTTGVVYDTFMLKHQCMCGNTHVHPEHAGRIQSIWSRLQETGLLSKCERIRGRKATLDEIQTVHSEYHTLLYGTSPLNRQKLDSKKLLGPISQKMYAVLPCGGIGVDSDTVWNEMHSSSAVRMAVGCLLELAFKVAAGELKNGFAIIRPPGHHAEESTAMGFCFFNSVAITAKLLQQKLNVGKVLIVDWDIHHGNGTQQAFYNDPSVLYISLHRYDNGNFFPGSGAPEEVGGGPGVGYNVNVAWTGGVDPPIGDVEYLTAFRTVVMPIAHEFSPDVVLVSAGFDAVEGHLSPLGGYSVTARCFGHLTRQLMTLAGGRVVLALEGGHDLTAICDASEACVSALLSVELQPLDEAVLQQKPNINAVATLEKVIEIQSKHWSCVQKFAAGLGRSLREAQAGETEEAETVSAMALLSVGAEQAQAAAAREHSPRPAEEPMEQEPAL

Compound: N[C@@H]1C[C@H]1c1ccc(OCC[C@H](NC(=O)c2ccccc2)C(=O)NCc2ccccc2)cc1
- IC50 [2]: 290 µM
- IC50 [3]: > 1000 µM

Compound: NC1CC1c1cccc(OCC[C@H](NC(=O)c2ccccc2)C(=O)NCc2ccccc2)c1 (stereo partly drawn)
- IC50 [2]: 230 µM
- IC50 [3]: 500 µM

Compound: O=C(N[C@@H](CCCCNC1CC1c1ccccc1)C(=O)NCc1ccccc1)c1ccccc1 (stereo partly drawn)
- IC50 [12]: > 25 µM

Compound: Nc1ccccc1NC(=O)c1ccc(-c2cn(CCc3ccsc3)nn2)cc1
- IC50 [13]: > 100 µM
- IC50 [1]: > 100 µM
- IC50 [14]: > 100 µM
- IC50 [15]: > 100 µM

Further lines, results first:

- IC50 [1]: > 100 µM
Compound: Nc1ccccc1NC(=O)c1ccc(-c2cn(CCc3cccc([N+](=O)[O-])c3)nn2)s1

- IC50 [4]: 2.45 µM
- IC50 [5]: 0.035 µM
- IC50 [6]: 2.73 µM
- IC50 [7]: 5.62 µM
Compound: c1nc(-c2cn(CC3CO3)nn2)c2cc[nH]c2n1 (stereo not drawn)

- IC50 [8]: > 10 µM
- IC50 [9]: > 10 µM
- IC50 [10]: > 10 µM
- IC50 [11]: > 10 µM
Compound: C[C@@H]1COCCN1c1cc(=O)n2c(n1)N(Cc1cncc(Cl)c1)[C@H](C(F)(F)F)CC2
